{"source": "PubChem BioAssay AID1259407", "about": "(Chemical Carcinogenesis Research Information System (CCRIS), 2018)", "system": "CCRIS mutagenicity, Ames/micronucleus/aberration tests", "test": "CCRIS mutagenicity studies", "key": {"[1]": {"conditions": "Test System: AMES SALMONELLA TYPHIMURIUM, Strain/Indicator: TA98, Metabolic Activation: NONE, Method: PREINCUBATION"}, "[2]": {"conditions": "Test System: AMES SALMONELLA TYPHIMURIUM, Strain/Indicator: TA100, Metabolic Activation: NONE, Method: STANDARD PLATE"}, "[3]": {"conditions": "Test System: AMES SALMONELLA TYPHIMURIUM, Strain/Indicator: TA100, Metabolic Activation: RAT, LIVER, S-9, AROCLOR 1254, Method: STANDARD PLATE"}, "[4]": {"conditions": "Test System: AMES SALMONELLA TYPHIMURIUM, Strain/Indicator: TA98, Metabolic Activation: NONE, Method: STANDARD PLATE"}}, "note": "Calls of active or inactive are those of the source. No rule for the calls is given here."}
{"compound": "O=C(N=c1sn(C(=O)c2ccc([N+](=O)[O-])cc2)c2ccc(Cl)cc12)c1ccc([N+](=O)[O-])cc1", "values": [{"measurement": "mutagenic call", "setting": "Test System: AMES SALMONELLA TYPHIMURIUM, Strain/Indicator: TA100, Metabolic Activation: S-9, Method: STANDARD PLATE", "result": "active; positive"}]}
{"compound": "Cc1ccccc1S(N)(=O)=O", "values": [{"measurement": "mutagenic call", "setting": "[1]", "result": "inactive; negative"}, {"measurement": "mutagenic call", "setting": "Test System: AMES SALMONELLA TYPHIMURIUM, Strain/Indicator: TA98, Metabolic Activation: RAT LIVER S-9, PHENOBARBITAL AND BETA-NAPHTHOFLAVONE, Method: PREINCUBATION", "result": "inactive; negative"}, {"measurement": "mutagenic call", "setting": "Test System: AMES SALMONELLA TYPHIMURIUM, Strain/Indicator: TA100, Metabolic Activation: NONE, Method: PREINCUBATION", "result": "inactive; negative"}, {"measurement": "mutagenic call", "setting": "Test System: AMES SALMONELLA TYPHIMURIUM, Strain/Indicator: TA100, Metabolic Activation: RAT LIVER S-9, PHENOBARBITAL AND BETA-NAPHTHOFLAVONE, Method: PREINCUBATION", "result": "inactive; negative"}, {"measurement": "mutagenic call", "setting": "Test System: AMES SALMONELLA TYPHIMURIUM, Strain/Indicator: TA1535, Metabolic Activation: NONE, Method: PREINCUBATION", "result": "inactive; negative"}, {"measurement": "mutagenic call", "setting": "Test System: AMES SALMONELLA TYPHIMURIUM, Strain/Indicator: TA1535, Metabolic Activation: RAT LIVER S-9, PHENOBARBITAL AND BETA-NAPHTHOFLAVONE, Method: PREINCUBATION", "result": "inactive; negative"}, {"measurement": "mutagenic call", "setting": "Test System: AMES SALMONELLA TYPHIMURIUM, Strain/Indicator: TA1537, Metabolic Activation: NONE, Method: PREINCUBATION", "result": "inactive; negative"}, {"measurement": "mutagenic call", "setting": "Test System: AMES SALMONELLA TYPHIMURIUM, Strain/Indicator: TA1537, Metabolic Activation: RAT LIVER S-9, PHENOBARBITAL AND BETA-NAPHTHOFLAVONE, Method: PREINCUBATION", "result": "inactive; negative"}, {"measurement": "mutagenic call", "setting": "Test System: AMES SALMONELLA TYPHIMURIUM, Strain/Indicator: TA1538, Metabolic Activation: NONE, Method: PREINCUBATION", "result": "inactive; negative"}, {"measurement": "mutagenic call", "setting": "Test System: AMES SALMONELLA TYPHIMURIUM, Strain/Indicator: TA1538, Metabolic Activation: RAT LIVER S-9, PHENOBARBITAL AND BETA-NAPHTHOFLAVONE, Method: PREINCUBATION", "result": "inactive; negative"}, {"measurement": "mutagenic call", "setting": "Test System: E.COLI, Strain/Indicator: WP2UVRA/PKM101, Metabolic Activation: NONE, Method: PREINCUBATION", "result": "inactive; negative"}, {"measurement": "mutagenic call", "setting": "Test System: E.COLI, Strain/Indicator: WP2UVRA/PKM101, Metabolic Activation: RAT LIVER S-9, PHENOBARBITAL AND BETA-NAPHTHOFLAVONE, Method: PREINCUBATION", "result": "inactive; negative"}, {"measurement": "mutagenic call", "setting": "Test System: E.COLI, Strain/Indicator: WP2UVRA, Metabolic Activation: NONE, Method: PREINCUBATION", "result": "inactive; negative"}, {"measurement": "mutagenic call", "setting": "Test System: E.COLI, Strain/Indicator: WP2UVRA, Metabolic Activation: RAT LIVER S-9, PHENOBARBITAL AND BETA-NAPHTHOFLAVONE, Method: PREINCUBATION", "result": "inactive; negative"}]}
{"compound": "COc1cc2c(c3oc(=O)c4c(c13)[C@@H](O)CC4=O)[C@@H]1C=CO[C@@H]1O2", "values": [{"measurement": "mutagenic call", "setting": "Test System: AMES SALMONELLA TYPHIMURIUM, Strain/Indicator: TA98, Metabolic Activation: HUMAN, LIVER, S-9, Method: STANDARD PLATE", "result": "inactive; negative"}, {"measurement": "mutagenic call", "setting": "Test System: AMES SALMONELLA TYPHIMURIUM, Strain/Indicator: TA100, Metabolic Activation: HUMAN, LIVER, S-9, Method: STANDARD PLATE", "result": "inactive; negative"}, {"measurement": "mutagenic call", "setting": "[2]", "result": "active; positive"}, {"measurement": "mutagenic call", "setting": "[3]", "result": "active; positive"}]}
{"compound": "COc1ccc(C=CC(=O)c2ccccc2)cc1", "values": [{"measurement": "mutagenic call", "setting": "[4]", "result": "inactive; negative"}, {"measurement": "mutagenic call", "setting": "Test System: AMES SALMONELLA TYPHIMURIUM, Strain/Indicator: TA98, Metabolic Activation: RAT, LIVER, S-9, AROCLOR 1254, Method: STANDARD PLATE", "result": "inactive; negative"}, {"measurement": "mutagenic call", "setting": "[2]", "result": "inactive; negative"}, {"measurement": "mutagenic call", "setting": "[3]", "result": "inactive; negative"}]}
{"compound": "C[C@H](CCC(=O)O)[C@H]1CC[C@H]2[C@@H]3CC[C@@H]4C[C@H](O)CC[C@]4(C)[C@H]3CC(=O)[C@]12C", "values": [{"measurement": "mutagenic call", "setting": "Test System: AMES SALMONELLA TYPHIMURIUM, Strain/Indicator: TA98, Metabolic Activation: NONE, Method: FLUCTUATION TEST", "result": "inactive; negative"}, {"measurement": "mutagenic call", "setting": "[1]", "result": "inactive; negative"}, {"measurement": "mutagenic call", "setting": "Test System: AMES SALMONELLA TYPHIMURIUM, Strain/Indicator: TA98, Metabolic Activation: RAT, LIVER, S-9, PCB, Method: PREINCUBATION", "result": "inactive; negative"}, {"measurement": "mutagenic call", "setting": "Test System: AMES SALMONELLA TYPHIMURIUM, Strain/Indicator: TA100, Metabolic Activation: NONE, Method: FLUCTUATION TEST", "result": "inactive; negative"}]}
{"compound": "COc1ccc2c(c1)-c1nccc3cc(OC)c(O)c(c13)C2=O", "values": [{"measurement": "mutagenic call", "setting": "Test System: AMES SALMONELLA TYPHIMURIUM, Strain/Indicator: TA98, Metabolic Activation: RAT, LIVER, S-9, PHENOBARBITAL AND BETA-NAPHTHOFLAVONE, Method: PREINCUBATION", "result": "active; positive"}]}
{"compound": "CC(C)C[C@@H]1NC(=O)[C@H](C)N(C)C(=O)CNC(=O)/C(=C/c2ccccc2)N(C)C1=O", "values": [{"measurement": "mutagenic call", "setting": "[4]", "result": "inactive; negative"}, {"measurement": "mutagenic call", "setting": "Test System: AMES SALMONELLA TYPHIMURIUM, Strain/Indicator: TA98, Metabolic Activation: RAT LIVER S-9, AROCLOR 1254, Method: STANDARD PLATE", "result": "inactive; negative"}, {"measurement": "mutagenic call", "setting": "[2]", "result": "inactive; negative"}, {"measurement": "mutagenic call", "setting": "Test System: AMES SALMONELLA TYPHIMURIUM, Strain/Indicator: TA100, Metabolic Activation: RAT LIVER S-9, AROCLOR 1254, Method: STANDARD PLATE", "result": "inactive; negative"}, {"measurement": "mutagenic call", "setting": "Test System: Ames Salmonella typhimurium, Strain/Indicator: TA97, Metabolic Activation: None, Method: Standard plate", "result": "inactive; negative. nitrosation did not increase mutagenicity"}, {"measurement": "mutagenic call", "setting": "Test System: Ames Salmonella typhimurium, Strain/Indicator: TA97, Metabolic Activation: Rat, Liver, S-9, Aroclor 1254 (10%), Method: Standard plate", "result": "inactive; negative. nitrosation did not increase mutagenicity"}, {"measurement": "mutagenic call", "setting": "Test System: Ames Salmonella typhimurium, Strain/Indicator: TA102, Metabolic Activation: None, Method: Standard plate", "result": "inactive; negative. nitrosation did not increase mutagenicity"}, {"measurement": "mutagenic call", "setting": "Test System: Ames Salmonella typhimurium, Strain/Indicator: TA102, Metabolic Activation: Rat, Liver, S-9, Aroclor 1254 (10%), Method: Standard plate", "result": "inactive; negative. nitrosation did not increase mutagenicity"}, {"measurement": "mutagenic call", "setting": "Test System: Ames Salmonella typhimurium, Strain/Indicator: TA104, Metabolic Activation: None, Method: Standard plate", "result": "inactive; negative. nitrosation did not increase mutagenicity"}, {"measurement": "mutagenic call", "setting": "Test System: Ames Salmonella typhimurium, Strain/Indicator: TA104, Metabolic Activation: Rat, Liver, S-9, Aroclor 1254 (10%), Method: Standard plate", "result": "inactive; negative. nitrosation did not increase mutagenicity"}]}
{"compound": "O=[N+]([O-])c1ccc2c(c1)CC=C2", "values": [{"measurement": "mutagenic call", "setting": "[4]", "result": "active; positive"}]}
{"compound": "CN(C)c1ccc(/C=C/c2ccc([N+](=O)[O-])cc2)cc1", "values": [{"measurement": "mutagenic call", "setting": "Test System: AMES SALMONELLA TYPHIMURIUM, Strain/Indicator: TA98, Metabolic Activation: HAMSTER, LIVER, S-9, AROCLOR 1254 (10%), Method: STANDARD PLATE", "result": "active; positive"}, {"measurement": "mutagenic call", "setting": "[4]", "result": "inactive; negative"}, {"measurement": "mutagenic call", "setting": "Test System: AMES SALMONELLA TYPHIMURIUM, Strain/Indicator: TA98, Metabolic Activation: RAT, LIVER, S-9, AROCLOR 1254 (10%), Method: STANDARD PLATE", "result": "active; positive"}, {"measurement": "mutagenic call", "setting": "Test System: AMES SALMONELLA TYPHIMURIUM, Strain/Indicator: TA100, Metabolic Activation: HAMSTER, LIVER, S-9, AROCLOR 1254 (10%), Method: STANDARD PLATE", "result": "active; positive"}, {"measurement": "mutagenic call", "setting": "[2]", "result": "inactive; negative"}, {"measurement": "mutagenic call", "setting": "Test System: AMES SALMONELLA TYPHIMURIUM, Strain/Indicator: TA100, Metabolic Activation: RAT, LIVER, S-9, AROCLOR 1254 (10%), Method: STANDARD PLATE", "result": "active; positive"}, {"measurement": "mutagenic call", "setting": "Test System: MOUSE LYMPHOMA, Strain/Indicator: L5178Y (TK+/TK-), Metabolic Activation: NONE, Method: SUSPENSION/PLATE", "result": "inactive; negative"}, {"measurement": "mutagenic call", "setting": "Test System: MOUSE LYMPHOMA, Strain/Indicator: L5178Y (TK+/TK-), Metabolic Activation: RAT, LIVER, S-9, AROCLOR 1254, Method: SUSPENSION/PLATE", "result": "active; positive. reevaluation of results: positive"}]}
